# Assay results as given in PubChem BioAssay (NCI).
#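 Method: 48-hour compound exposure of cells in 96-well plates, five concentrations, linear interpolation of endpoints. The concentration for 50% growth inhibition is given as GI50. TGI: concentration producing complete growth inhibition.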
# Columns and labels:
# Assay in all cases: growth of human tumour cells (NCI), 48 h
# [1] = test system: 786-0 renal
# [2] = test system: A498 renal
# [3] = test system: A549 NSCLC
# [4] = test system: ACHN renal
# [5] = test system: BT-549 breast
# [6] = test system: CAKI-1 renal
# [7] = test system: CCRF-CEM leukemia
# [8] = test system: COLO 205 colon
# [9] = test system: DU-145 prostate
# [10] = test system: EKVX NSCLC
# [11] = test system: HCC-2998 colon
# [12] = test system: HCT-116 colon
# [13] = test system: HCT-15 colon
# [14] = test system: HL-60(TB) leukemia
# [15] = test system: HOP-62 NSCLC
# [16] = test system: HOP-92 NSCLC
# [17] = test system: HS 578T breast
# [18] = test system: HT29 colon
# [19] = test system: IGROV1 ovarian
# [20] = test system: K-562 leukemia
# [21] = test system: KM12 colon
# [22] = test system: LOX IMVI melanoma
# [23] = test system: M14 melanoma
# [24] = test system: MALME-3M melanoma
# [25] = test system: MCF7 breast
# [26] = test system: MDA-MB-231 breast
# [27] = test system: MDA-MB-435
# [28] = test system: MDA-MB-468 breast
# [29] = test system: MOLT-4 leukemia
# [30] = test system: NCI-H226 lung
# [31] = test system: NCI-H23 lung
# [32] = test system: NCI-H460 lung
# [33] = test system: NCI-H522 lung
# [34] = test system: OVCAR-3 ovarian
# [35] = test system: OVCAR-4 ovarian
# [36] = test system: OVCAR-5 ovarian
# [37] = test system: OVCAR-8 ovarian
# [38] = test system: PC-3 prostate
# [39] = test system: RXF 393 renal
# [40] = test system: SF-268 CNS
# [41] = test system: SF-295 CNS
# [42] = test system: SF-539 CNS
# [43] = test system: SK-MEL-2 melanoma
# [44] = test system: SK-MEL-28 melanoma
# [45] = test system: SK-MEL-5 melanoma
# [46] = test system: SK-OV-3 ovarian
# [47] = test system: SN12C renal
# [48] = test system: SNB-19 CNS
# [49] = test system: SR leukemia
# [50] = test system: SW-620 colon
# [51] = test system: T-47D breast
# [52] = test system: TK-10 renal
# [53] = test system: U251 CNS
# [54] = test system: UACC-257 melanoma
# [55] = test system: UACC-62 melanoma
# [56] = test system: UO-31 renal
structure (smiles),measurement,setting,value
CN(C)c1nc(NCCNS(=O)(=O)c2ccc(C(=O)/C=C/c3ccc(Cl)cc3)cc2)nc(N2CCOCC2)n1,GI50,[1],14.8 µM
same,TGI,[1],28.8 µM
same,GI50,[2],12.4 µM
same,TGI,[2],25.1 µM
same,GI50,[3],14.4 µM
same,TGI,[3],28.5 µM
same,GI50,[4],13.5 µM
same,TGI,[4],26.3 µM
same,GI50,[5],15.3 µM
same,TGI,[5],29.3 µM
same,GI50,[6],11.2 µM
same,TGI,[6],24.7 µM
same,GI50,[7],6.86 µM
same,TGI,[7],> 100 µM
same,GI50,[8],16.7 µM
same,TGI,[8],34.3 µM
same,GI50,[9],17.2 µM
same,TGI,[9],34 µM
same,GI50,[10],14.8 µM
same,TGI,[10],28.7 µM
same,GI50,[11],16.7 µM
same,TGI,[11],30.8 µM
same,GI50,[12],11.7 µM
same,TGI,[12],24.3 µM
same,GI50,[13],2070 nM
same,TGI,[13],4.54 µM
same,GI50,[14],14.7 µM
same,TGI,[14],95.1 µM
same,GI50,[15],17.5 µM
same,TGI,[15],34 µM
same,GI50,[16],15.1 µM
same,TGI,[16],32 µM
same,GI50,[17],15.8 µM
same,TGI,[17],60.5 µM
same,GI50,[18],3.21 µM
same,TGI,[18],10.4 µM
same,GI50,[19],3.08 µM
same,TGI,[19],11 µM
same,GI50,[20],3.71 µM
same,TGI,[20],> 100 µM
same,GI50,[21],16.9 µM
same,TGI,[21],41.4 µM
same,GI50,[22],1710 nM
same,TGI,[22],3.24 µM
same,GI50,[23],14.1 µM
same,TGI,[23],28.3 µM
same,GI50,[24],15.1 µM
same,TGI,[24],28.6 µM
same,GI50,[25],2370 nM
same,TGI,[25],6.39 µM
same,GI50,[26],13.3 µM
same,TGI,[26],26.5 µM
same,GI50,[27],12.8 µM
same,TGI,[27],26.6 µM
same,GI50,[28],11 µM
same,TGI,[28],24.9 µM
same,GI50,[29],3.38 µM
same,TGI,[29],80.3 µM
same,GI50,[30],15.7 µM
same,TGI,[30],34 µM
same,GI50,[31],15.7 µM
same,TGI,[31],29.5 µM
same,GI50,[32],16.8 µM
same,TGI,[32],33.6 µM
same,GI50,[33],14 µM
same,TGI,[33],27.3 µM
same,GI50,[34],17.9 µM
same,TGI,[34],35.5 µM
same,GI50,[35],14.7 µM
same,TGI,[35],29 µM
same,GI50,[36],15 µM
same,TGI,[36],28.4 µM
same,GI50,[37],14.8 µM
same,TGI,[37],28.4 µM
same,GI50,[38],13 µM
same,TGI,[38],29.6 µM
same,GI50,[39],12.8 µM
same,TGI,[39],27 µM
same,GI50,[40],17.7 µM
same,TGI,[40],43.8 µM
same,GI50,[41],13.3 µM
same,TGI,[41],26.4 µM
same,GI50,[42],14.7 µM
same,TGI,[42],27.9 µM
same,GI50,[43],16.6 µM
same,TGI,[43],30.4 µM
same,GI50,[44],15.5 µM
same,TGI,[44],28.9 µM
same,GI50,[45],16.3 µM
same,TGI,[45],30.1 µM
same,GI50,[46],15.3 µM
same,TGI,[46],30.2 µM
same,GI50,[47],14.4 µM
same,TGI,[47],27.8 µM
same,GI50,[48],14.2 µM
same,TGI,[48],27.2 µM
same,GI50,[49],2520 nM
same,TGI,[49],> 100 µM
same,GI50,[50],8.46 µM
same,TGI,[50],21.7 µM
same,GI50,[51],16.7 µM
same,TGI,[51],42.2 µM
same,GI50,[52],15.8 µM
same,TGI,[52],29.4 µM
same,GI50,[53],8.17 µM
same,TGI,[53],20.7 µM
same,GI50,[54],16.2 µM
same,TGI,[54],30 µM
same,GI50,[55],11.4 µM
same,TGI,[55],23.7 µM
same,GI50,[56],11.4 µM
same,TGI,[56],23.5 µM
